Experimental data from patent publication US20240216355A1, “PHARMACEUTICAL COMPOSITIONS FOR USE IN THE PREVENTION AND TREATMENT OF A DISEASE OR DISORDER CAUSED BY OR ASSOCIATED WITH ONE OR MORE PREMATURE TERMINATION CODONS” (Monte Rosa Therapeutics, Inc., priority 2021, published 2024).

How the values were obtained:
[1] = biological target: T1, Full length wild-type cereblon CRBN (Homo sapiens, UniProt Q96SW2); assay: Fluorescence polarization (FP) assay indicating cereblon binding
T1 construct: Full length wild-type cereblon CRBN (80.0 nM, 10 μL) was incubated in assay buffer
T1 sequence (Q96SW2 whole entry): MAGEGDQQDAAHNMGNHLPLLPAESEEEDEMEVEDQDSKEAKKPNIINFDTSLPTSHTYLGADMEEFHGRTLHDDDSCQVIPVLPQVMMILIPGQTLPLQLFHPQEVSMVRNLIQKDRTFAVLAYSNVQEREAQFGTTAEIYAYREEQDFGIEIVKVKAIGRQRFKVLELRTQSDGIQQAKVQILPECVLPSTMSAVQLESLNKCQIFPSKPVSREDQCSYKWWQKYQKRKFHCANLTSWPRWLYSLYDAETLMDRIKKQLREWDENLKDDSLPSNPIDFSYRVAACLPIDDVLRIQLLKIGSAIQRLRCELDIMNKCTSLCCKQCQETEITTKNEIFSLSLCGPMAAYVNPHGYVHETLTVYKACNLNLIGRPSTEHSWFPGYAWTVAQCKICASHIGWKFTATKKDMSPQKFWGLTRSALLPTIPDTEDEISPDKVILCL
Procedure: Compound activity was monitored in a fluorescence polarization (FP) homogeneous assay using 1-[5-({2-[2-(2-{[2-(2,6-dioxopiperidin-3-yl)-1,3-dioxo-2,3-dihydro-1H-isoindol-4-yl]oxy}acetamido)ethoxy]ethyl}carbamoyl)pentyl]-3,3-dimethyl-2-[(1E,3E)-5-[(2E)-1,3,3-trimethyl-5-sulfo-2,3-dihydro-1H-indol-2-ylidene]penta-1,3-dien-1-yl]-3H-indol-1-ium-5-sulfonate as a fluorescent probe. Unless otherwise stated, all reagents were purchased from Sigma Aldrich. Enzymatic reactions were conducted in Perkin-Elmer Black 384 well ProxiPlate Plus (catalogue no. 6008269) in 10 μL total volume. Full length wild-type cereblon CRBN (80.0 nM, 10 μL) was incubated in assay buffer containing 20 mM HEPES (pH 8.0), […], 0.5 mM TCEP and 0.05% Tween 20 in the presence or absence of compound (300 nL). Inhibitors were stored as 10 mM DMSO stocks in an inert environment (low humidity, dark, low oxygen, room temperature) using the Storage Pod System. Compounds and DMSO were dispensed using the Echo E5XX (Labcyte Inc. USA) to give concentrations from 300 to 0.937 or 3000 to 9.3 nM in a 12 data point curve. […] Following incubation at room temperature for 30 min, the assay was initiated by dispensing the probe to a final concentration of 5 nM (2.5 nL of a 20 μM stock) using the Echo E5XX. FP was measured after a period of 12 hours using a Pherastar plate reader (BMG Labtech, Germany) exciting at 590 nm and measuring the amount of parallel and perpendicular light at 675 nm. The FP signal was subsequently normalized to the no-compound control (i.e., DMSO). Analysis and IC50 values were derived using Dotmatics (Dotmatics UK) software.

GSPT1 = biological target: T2, GSPT1 (Homo sapiens, UniProt P15170+Q96SW2); assay: GSPT1 degradation immunofluorescence assay in CAL-51 cells; format: cell-based; settings: 6 hours treatment, compounds 201 to 307, read-out: Activity for GSPT1 degradation (DC50 code)
T2 construct: CAL-51 cells were purchased from DSMZ (cat. Number ACC302); host or cells: CAL-51 cells
T2 sequence (P15170 whole entry): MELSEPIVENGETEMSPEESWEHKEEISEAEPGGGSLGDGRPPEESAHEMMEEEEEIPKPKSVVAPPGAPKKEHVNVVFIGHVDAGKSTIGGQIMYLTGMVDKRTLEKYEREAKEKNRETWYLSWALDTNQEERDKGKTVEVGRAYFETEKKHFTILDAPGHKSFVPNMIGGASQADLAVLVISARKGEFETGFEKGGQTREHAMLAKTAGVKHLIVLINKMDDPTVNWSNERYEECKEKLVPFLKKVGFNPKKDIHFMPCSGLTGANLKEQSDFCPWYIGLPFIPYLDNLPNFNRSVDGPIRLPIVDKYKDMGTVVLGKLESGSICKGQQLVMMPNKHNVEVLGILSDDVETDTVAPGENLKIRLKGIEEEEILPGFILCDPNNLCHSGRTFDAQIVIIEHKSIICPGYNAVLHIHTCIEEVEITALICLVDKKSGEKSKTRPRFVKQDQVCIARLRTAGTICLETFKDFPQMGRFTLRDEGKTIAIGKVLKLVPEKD
T2 sequence (Q96SW2 whole entry): as the sequence (Q96SW2 whole entry) above
T2 sequence (Q16531 whole entry partner): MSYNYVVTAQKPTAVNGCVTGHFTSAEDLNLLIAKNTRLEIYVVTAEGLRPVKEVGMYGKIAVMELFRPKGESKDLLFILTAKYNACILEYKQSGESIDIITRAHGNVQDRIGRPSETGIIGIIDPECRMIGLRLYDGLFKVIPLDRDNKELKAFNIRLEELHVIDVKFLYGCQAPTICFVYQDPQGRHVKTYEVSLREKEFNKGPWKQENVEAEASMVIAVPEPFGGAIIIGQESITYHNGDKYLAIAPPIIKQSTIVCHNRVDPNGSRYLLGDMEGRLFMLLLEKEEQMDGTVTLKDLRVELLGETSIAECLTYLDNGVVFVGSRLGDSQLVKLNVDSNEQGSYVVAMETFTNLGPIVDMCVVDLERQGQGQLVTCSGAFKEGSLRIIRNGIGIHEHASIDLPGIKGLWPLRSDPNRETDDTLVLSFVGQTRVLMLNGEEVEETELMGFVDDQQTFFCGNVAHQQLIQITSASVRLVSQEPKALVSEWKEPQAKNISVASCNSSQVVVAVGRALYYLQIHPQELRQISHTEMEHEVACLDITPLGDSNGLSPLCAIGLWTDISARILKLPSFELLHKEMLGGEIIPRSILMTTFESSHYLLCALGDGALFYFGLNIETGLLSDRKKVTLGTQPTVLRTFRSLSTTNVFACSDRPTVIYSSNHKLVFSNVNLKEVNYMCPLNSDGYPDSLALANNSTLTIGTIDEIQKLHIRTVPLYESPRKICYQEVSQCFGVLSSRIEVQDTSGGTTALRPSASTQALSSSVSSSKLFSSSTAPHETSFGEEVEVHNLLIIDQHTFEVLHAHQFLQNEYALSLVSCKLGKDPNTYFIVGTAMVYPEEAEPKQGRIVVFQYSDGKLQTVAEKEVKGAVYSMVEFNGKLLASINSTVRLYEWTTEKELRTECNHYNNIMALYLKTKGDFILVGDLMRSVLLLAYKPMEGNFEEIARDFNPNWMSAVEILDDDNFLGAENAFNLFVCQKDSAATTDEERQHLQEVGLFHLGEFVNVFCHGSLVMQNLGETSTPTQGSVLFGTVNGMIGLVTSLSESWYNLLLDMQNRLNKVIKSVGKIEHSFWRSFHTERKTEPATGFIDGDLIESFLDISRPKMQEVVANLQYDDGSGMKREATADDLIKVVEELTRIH
Procedure: CAL-51 cells were purchased from DSMZ (cat. Number ACC302), sub-cultured in 90% Dulbecco's MEM (4.5 g/L glucose, Gibco 11965)+10% heat inactivated FBS (BioConcept, 2-01F1361) and incubated at 37° C., 5% CO2. For the assay, imaging microtiterplate Cell Carrier 96 Ultra (Perkin Elmer 6055302) were pre-coated with Fibronectin (Sigma F085, 30 μl at 0.2 μg/ml) in PBS (100p, Gibco 14190) for 45 min at room temperature, rinsed with PBS and CAL-51 cells (30K cells/well) were plated and let to adhere overnight. Cells were treated with compounds typically using a serial dilution ranging from 30 μM to 0.1 nM for 6 hours. Compounds were stored at 10 mM DMSO stocks. Vehicle (DMSO), positive (CC-885, 10 μM) and rescue controls (positive control plus 0.2 μM bortezomib) were also included at this stage. Cells were subsequently rinsed with PBS and fixed in 10% Formalin solution (50p, Sigma HT5011)) for 20 mins at room temperature. Following three consecutive PBS washes (100 μl), cells were permeabilized in 0.1% Triton X-100 in PBS (Sigma 93443, 50 μl) for 15 mins at room temperature. Following three further PBS washes, 50 μl blocking buffer (1% BSA, Sigma A4503, in PBS) was added for 45 min for signal-to-noise reduction. Primary antibody (human GSPT1, Sigma HPA052488) was diluted in blocking buffer (dil.1/300, 35 μl/well) and incubated with the cells overnight at 4° C. After three PBS washes, Alexa-fluor 488 coupled secondary antibodies (Invitrogen, A32731, dil. 1/1000), Alexa-fluor 647-Phalloïdin (Invitrogen, A22287, dil. 1/200) and DAPI (Thermo, #62248, dil.1/1000) were diluted in blocking buffer and incubated with the samples for 2 hours at room temperature. After three final PBS washes, samples were conserved in 100 μl PBS in the dark, until measurement. Image acquisition was performed on the Operetta High-Content Imager (Perkin-Elmer). Fluorescence intensity of Alexa-Fluor 488 (GSPT1), Alexa-Fluor 647 (Actin) and DAPI (Nucleus) were measured. For the determination of GSPT1 DC50 values, a custom algorithm implemented in the PerkinElmer image analysis software Harmony-Acapella@ was developed. After user-defined setting of adjustment parameters, the analysis was run identically without human intervention for all image fields. DAPI staining of the nuclei was used to determine the location of cells using standard nuclei detection modules. Segmentation artifacts were removed by threshold-based filters for area, roundness and intensity. The outline of the cells was determined analogously from the sum of the normalized, smoothed DAPI and Actin channel, starting from each nucleus.
The Alexa-Fluor 488 (GSPT1) signal intensity in each cell was finally measured, in order to obtain a Mean intensity per cell. GSPT1 degradation (DC50) was calculated after normalization to controls and data import in CDD vault Database, using non-linear regression.

SMILES | IC50 [1] | DC50 (GSPT1)
O=C1CCC(N2Cc3ccc(COC(=O)Nc4cnc(N5CCCCC5)nc4)cc3C2=O)C(=O)N1 (centres unmarked) [Compound 264] | < 1100 nM | 
O=C1CCC(N2Cc3ccc(COC(=O)Nc4ccc5c(c4)OC(F)(F)O5)cc3C2=O)C(=O)N1 (centres unmarked) [Compound 279] |  | < 30 nM
CC(C)(C)c1ccc(NC(=O)OCc2ccc3c(c2)C(=O)N(C2CCC(=O)NC2=O)C3)cc1 (centres unmarked) [Compound 247] |  | < 30 nM
Cc1c(Cl)cc(NC(=O)OCc2ccc3c(c2)C(=O)N(C2CCC(=O)NC2=O)C3)cc1CN1CC2CCC(C1)O2 (centres unmarked) [Compound 221] |  | < 30 nM
CC(NC(=O)OCc1ccc2c(c1)C(=O)N(C1CCC(=O)NC1=O)C2)c1ccccc1 (centres unmarked) [Compound 302] | < 1100 nM | 
CCc1ncc(NC(=O)OCc2ccc3c(c2)C(=O)N(C2CCC(=O)NC2=O)C3)cc1C (centres unmarked) [Compound 249] |  | < 30 nM
CC1(c2ccc(NC(=O)OCc3ccc4c(c3)C(=O)N(C3CCC(=O)NC3=O)C4)cc2)COC1 (centres unmarked) [Compound 262] | < 1100 nM | 
Cc1c(Cl)cc(NC(=O)OCc2ccc3c(c2)C(=O)N(C2CCC(=O)NC2=O)C3)cc1OC1CCNC1 (centres unmarked) [Compound 244] | < 1100 nM | 
COc1cc(Cl)ccc1NC(=O)OCc1ccc2c(c1)C(=O)N(C1CCC(=O)NC1=O)C2 (centres unmarked) [Compound 238] | < 1100 nM | 
Cc1c(Cl)cc(NC(=O)OCc2ccc3c(c2)C(=O)N(C2CCC(=O)NC2=O)C3)cc1OCCN1CCOCC1 (centres unmarked) [Compound 248] |  | < 30 nM
O=C1CCC(N2Cc3ccc(COC(=O)Nc4cc(OCCN5CCOCC5)cc(OC(F)(F)F)c4)cc3C2=O)C(=O)N1 (centres unmarked) [Compound 306] | < 1100 nM | 
O=C1CCC(N2Cc3ccc(COC(=O)Nc4ccc(-c5ccccn5)cc4)cc3C2=O)C(=O)N1 (centres unmarked) [Compound 250] |  | < 30 nM
Cc1c(Cl)cc(NC(=O)OCc2ccc3c(c2)C(=O)N(C2CCC(=O)NC2=O)C3)cc1OCC1CCNC1 (centres unmarked) [Compound 252] | < 1100 nM | 
O=C1CCC(N2Cc3ccc(COC(=O)Nc4cnc(N5CCCCC5)c(F)c4)cc3C2=O)C(=O)N1 (centres unmarked) [Compound 272] | < 1100 nM | 
COc1cc(NC(=O)OCc2ccc3c(c2)C(=O)N(C2CCC(=O)NC2=O)C3)cnc1-c1ccccc1 (centres unmarked) [Compound 290] |  | < 30 nM
O=C1CCC(N2Cc3ccc(COC(=O)Nc4ccc(N5CCOCC5)nc4)cc3C2=O)C(=O)N1 (centres unmarked) [Compound 276] | < 1100 nM | 
COc1cc(C)c(Cl)cc1NC(=O)OCc1ccc2c(c1)C(=O)N(C1CCC(=O)NC1=O)C2 (centres unmarked) [Compound 201] |  | < 30 nM
Cc1cc(NC(=O)OCc2ccc3c(c2)C(=O)N(C2CCC(=O)NC2=O)C3)cc(C)n1 (centres unmarked) [Compound 207] | < 1100 nM | 
CC1CCN(c2ccc(NC(=O)OCc3ccc4c(c3)C(=O)N(C3CCC(=O)NC3=O)C4)cn2)C1 (centres unmarked) [Compound 269] |  | < 30 nM
O=C1CCC(N2Cc3ccc(COC(=O)Nc4cc(F)cc(OC(F)(F)F)c4)cc3C2=O)C(=O)N1 (centres unmarked) [Compound 257] |  | < 30 nM
O=C1CCC(N2Cc3ccc(COC(=O)Nc4ccc5c(c4)OCC5)cc3C2=O)C(=O)N1 (centres unmarked) [Compound 218] | < 1100 nM | 
O=C1CCC(N2Cc3ccc(COC(=O)Nc4cc(CN5CC6CC5CO6)cc(OC(F)F)c4)cc3C2=O)C(=O)N1 (centres unmarked) [Compound 300] | < 1100 nM | 

SMILES | IC50 [1] | DC50 (GSPT1)
CC1CCCN1c1ccc(NC(=O)OCc2ccc3c(c2)C(=O)N(C2CCC(=O)NC2=O)C3)cn1 (centres unmarked) [Compound 274] |  | < 30 nM
COc1cc(NC(=O)OCc2ccc3c(c2)C(=O)N(C2CCC(=O)NC2=O)C3)cnc1C (centres unmarked) [Compound 251] | < 1100 nM | 
O=C1CCC(N2Cc3ccc(COC(=O)NC4CCCC4)cc3C2=O)C(=O)N1 (centres unmarked) [Compound 229] | < 1100 nM | 
O=C1CCC(N2Cc3ccc(COC(=O)Nc4ccc(-c5ccccc5F)nc4)cc3C2=O)C(=O)N1 (centres unmarked) [Compound 284] |  | < 30 nM
O=C1CCC(N2Cc3ccc(COC(=O)Nc4ccc(C5CCC5)nc4)cc3C2=O)C(=O)N1 (centres unmarked) [Compound 305] | < 1100 nM | 
O=C1CCC(N2Cc3ccc(COC(=O)Nc4cc(CN5CCOCC5)cc(OC(F)F)c4)cc3C2=O)C(=O)N1 (centres unmarked) [Compound 295] |  | < 30 nM
O=C1CCC(N2Cc3ccc(COC(=O)Nc4cc(OCCN5CCOCC5)cc(OC(F)F)c4)cc3C2=O)C(=O)N1 (centres unmarked) [Compound 296] |  | < 30 nM
CN(C)C1CN(c2ccc(NC(=O)OCc3ccc4c(c3)C(=O)N(C3CCC(=O)NC3=O)C4)cn2)C1 (centres unmarked) [Compound 289] | < 1100 nM | 
CN1CCC(Oc2cc(Cl)cc(NC(=O)OCc3ccc4c(c3)C(=O)N(C3CCC(=O)NC3=O)C4)c2)C1 (centres unmarked) [Compound 246] |  | < 30 nM
O=C1CCC(N2Cc3ccc(COC(=O)Nc4cccc(OC5CC5)c4)cc3C2=O)C(=O)N1 (centres unmarked) [Compound 293] | < 1100 nM | 
O=C1CCC(N2Cc3ccc(COC(=O)Nc4ccc5c(c4)CCCO5)cc3C2=O)C(=O)N1 (centres unmarked) [Compound 267] | < 1100 nM | 
O=C1CCC(N2Cc3ccc(COC(=O)Nc4ccc(-c5ccccc5)nc4)cc3C2=O)C(=O)N1 (centres unmarked) [Compound 242] |  | < 30 nM
Cc1c(CN2CCOCC2)cc(NC(=O)OCc2ccc3c(c2)C(=O)N(C2CCC(=O)NC2=O)C3)cc1OC(F)(F)F (centres unmarked) [Compound 234] |  | < 30 nM
O=C1CCC(N2Cc3ccc(COC(=O)Nc4ccc(F)c(OC(F)(F)F)c4)cc3C2=O)C(=O)N1 (centres unmarked) [Compound 261] |  | < 30 nM
CC(C)(C)c1ccc(NC(=O)OCc2ccc3c(c2)C(=O)N(C2CCC(=O)NC2=O)C3)cn1 (centres unmarked) [Compound 243] |  | < 30 nM
O=C1CCC(N2Cc3ccc(COC(=O)N4CCCC4)cc3C2=O)C(=O)N1 (centres unmarked) [Compound 226] | < 1100 nM | 
O=C1CCC(N2Cc3ccc(COC(=O)Nc4cc(Cl)cc(OC(F)(F)F)c4)cc3C2=O)C(=O)N1 (centres unmarked) [Compound 211] |  | < 30 nM
O=C1CCC(N2Cc3ccc(COC(=O)NCc4ccccc4)cc3C2=O)C(=O)N1 (centres unmarked) [Compound 298] | < 1100 nM | 
O=C1CCC(N2Cc3ccc(COC(=O)Nc4cccc(OC(F)F)c4)cc3C2=O)C(=O)N1 (centres unmarked) [Compound 205] |  | < 30 nM
O=C1CCC(N2Cc3ccc(COC(=O)Nc4cnc5c(c4)CCC5)cc3C2=O)C(=O)N1 (centres unmarked) [Compound 253] | < 1100 nM | 
O=C1CCC(N2Cc3ccc(COC(=O)Nc4cnc(-c5ccccc5)c(F)c4)cc3C2=O)C(=O)N1 (centres unmarked) [Compound 285] |  | < 30 nM
Cc1ccc(NC(=O)OCc2ccc3c(c2)C(=O)N(C2CCC(=O)NC2=O)C3)cc1Cl (centres unmarked) [Compound 210] |  | < 30 nM
